Where a name gives a salt, the structure may show the parent alone.
Assays:
[1] = target: T1, C-terminal catalytic domain of human DNMT3A (hDNMT3A) (Homo sapiens, UniProt Q9Y6K1); test: DNMT3A restriction-based fluorescence assay; type: biochemical; conditions: mean of at least two independent experiments; read-out: Enzyme Inhibition (EC50 ± SD) hDNMT3A
T1 construct: the C-terminal catalytic domain of human DNMT3A (hDNMT3A)
Experimental: DNMT3A enzyme inhibition was adapted from the restriction-based fluorescence assay protocol described in Ceccaldi et al.. Briefly, a biotin-labelled oligonucleotide at the 5’ end is hybridized to his complementary strand labelled at the 3’ end with 6-carboxyfluorescein. The DNA duplex containing only one single CpG site overlapping with a restriction site of a methylation sensitive restriction enzyme is transferred in the wells coated with avidin. The methylation reaction is performed by adding human C-terminal DNMT3A at the final concentration of 4 ng/µL in a total volume of 50 µL in the presence of the inhibitors at various concentrations and the co-substrate SAM at the final concentration of 20 µM. The plate was incubated for 1 h at 37 °C, washed, and added with the methylation sensitive restriction enzyme HpyCH4IV, incubated for 1 h further at 37 °C, washed and the fluorescence measured with a PerkinElmer Envision Multilabel Plate Reader. The data are expressed as percentage of inhibition vs. log concentration (M). Data are normalized referring to the “restriction control” (wells coated with labelled duplex not treated nor exposed to DNMT3A, but only cleaved by HpyCH4IV) as the maximum of inhibition (100%) and to the “DMSO control” (wells coated with labelled duplex but treated just with 0.1% DMSO exposed to DNMT3A and then to HpyCH4IV) as the minimum of inhibition (0%; total methylation).

HL60 APL cells = test: Antiproliferative activity, MTT; type: cell-based; conditions: Homo sapiens, HL-60, 48 h treatment, read-out: Antiproliferative Activity (IC50 ± SD) HL60
Experimental: (§1) U937 histiocytic lymphoma, HL60 acute promyelocytic leukemia, H1299 lung adenocarcinoma, MCF7 breast carcinoma, HT1080 fibrosarcoma, M14 melanoma, HeLa epithelial cervix carcinoma and peripheral blood B lymphocyte AHH1 human cell lines were obtained from the Deutsche Sammlung für Mikroorganismen and Zellkulturen (DSZM, Braunschweig, Germany) and were maintained in RPMI 1640 medium contained 10% fetal bovine serum (FBS), 2 mM L-glutamine, and antibiotics in a humidified atmosphere with 5% CO2 at 37 °C. HCT116 (ATCC, VA, USA) cells were propagated in Dulbecco’s modified Eagle medium (DMEM) (Euroclone, Milan, Italy) with 10% fetal bovine serum (FBS; Euroclone, Milan, Italy), 2 mM L-glutamine (Euroclone, Milan, Italy), and antibiotics (100 U/mL penicillin, 100 µg/mL streptomycin) (Euroclone, Milan, Italy). The experiments were performed with early (3–20) cell passages. Cell lines were treated with compounds at the indicated concentrations in the exponential growth phase.
(§2) Then, increasing concentrations of different compounds (ranging from 0.01 to 100 μM) were added, and cell proliferation was evaluated by a MTT assay after 48 h. Cells exposed to DMSO were used as control. The effect of compounds was evaluated using the CellTiter-Glo luminescent cell viability assay (Promega, Madison, WI, USA) according to the manufacturer’s instructions. For HCT116, 5 × 10^4 cells/well were plated in 24-well plate and treated, in duplicate, with compounds at several concentrations for 24 and 48 h of induction. After treatments, MTT solution was added for 3 h at 0.5 mg/mL, the obtained crystals were dissolved in DMSO (Sigma-Aldrich, Milan, Italy), and the absorbance was read at a wavelength of 570 nm with reader TECAN M-200. All the experiments were performed in triplicate and repeated at least three times.
(§3) IC50 values of compounds against cellular viability were determined by using nonlinear regression fitting curves with GraphPad Prism 8. The t-test used for statistical analyses was performed with GraphPad Prism 8. All the tests were one-tailed and a p-value < 0.05 was considered statistically significant.

U937 AML cells = test: Antiproliferative activity, MTT; type: cell-based; conditions: Homo sapiens, U-937, 48 h treatment, read-out: Antiproliferative Activity (IC50 ± SD) U937
Experimental: as §1, §2, §3

U937 cells = test: Sub-G1 peak, cell cycle flow cytometry; type: cell-based, human; conditions: U937, 1 µM, 24 and 48 h
Experimental: Cell cycle analysis was performed on 5 × 10^5 fixed cells resuspended in a RNase A (3 mg/mL) and propidium iodide (PI) solution (1 mg/mL). Samples were analyzed with a C6 Accuri BD (Becton Dickinson & Co., San Jose, CA, USA). The percentage of apoptosis was measured analyzing sub-G1 peaks. Apoptotic cell death was also evaluated by using annexin V–fluorescein isothiocyanate (FITC) apoptosis kit (BD Bioscience) and assayed according to the manufacturer’s instructions. Cells double-stained for both annexin V and PI were analyzed by flow cytometry. PI was used in conjunction with annexin V–FITC to distinguish cells in the earlier stages of apoptosis (annexin V-FITC positive, PI negative) from those in later stages of apoptosis or that were already dead (annexin V–FITC positive, PI positive). Percentage of cells positive for caspase-3 activation was evaluated by Active Caspase-3 Apoptosis Kit (BD biosciences, Milan, Italy) according to the manufacturer’s instructions.

[2] = system: H1299 human non-small cell lung carcinoma; test: Antiproliferative activity, MTT; type: cell-based; conditions: Homo sapiens, NCI-H1299, 48 h, 48 h treatment, read-out: Antiproliferative Activity (IC50 ± SD) H1299
Experimental: as §1, §2, §3

[3] = system: HCT116 human colorectal carcinoma; test: Antiproliferative activity, MTT; type: cell-based; conditions: HCT-116, 48 h treatment, read-out: Antiproliferative Activity (IC50 ± SD) HCT116
Experimental: as §1, §2, §3

[4] = system: HT1080 human fibrosarcoma; test: Antiproliferative activity, MTT; type: cell-based; conditions: HT-1080, 48 h treatment, read-out: Antiproliferative Activity (IC50 ± SD) HT1080
Experimental: as §1, §2, §3

[5] = system: HeLa epithelial cervix carcinoma; test: Antiproliferative activity, MTT; type: cell-based; conditions: Homo sapiens, 48 h treatment, read-out: Antiproliferative Activity (IC50 ± SD) HeLa
Experimental: as §1, §2, §3

M14 human melanoma = test: Antiproliferative activity, MTT; type: cell-based; conditions: 48 h treatment, read-out: Antiproliferative Activity (IC50 ± SD) M14
Experimental: as §1, §2, §3

F21T G-quadruplex DNA = test: FRET melting assay, G-quadruplex DNA; type: binding
Experimental: (§4) Experimental procedure for Fluorescence Resonance Energy Transfer (FRET) melting assay Oligonucleotides labeled at 5’ with FAM (6-carboxyfluorescein) as donor fluorophore and TAMRA (6 - carboxytetramethylrhodamine) at 3’ as the acceptor fluorophore were purchased from STAB VIDA (Portugal). Each oligonucleotide was initial ly diluted to 100 µM in water (Molecular Biology Reagent, Sigma). Stock solutions of 20 µM and subsequent dilutions were made with FRET buffer (60 mM KCl, potassium cacodylate, pH 7.4). Tagged oligonucleotides at 0.4 µM were annealed by heating at 90 -95 °C for 10 min, followed by slow cooling to room temperature. St ock solutions of compounds (1 mM) were prepared in 10% DMSO. Subsequent dilutions were performed using FRET buffer. Annealed DNA (50 µL) and test compound solutions (50 µL) were distributed across 96-well RT-PCR plates (PCR-96-FLT-C, Axygen, Inc). Fluorescence readings (performed in a 7300 RT -PCR equipment from Applied Biosystems) were taken at intervals of 0.5 °C in the range 31 –95 °C, with the temperature being maintained for 30 seconds prior to each reading. Experiments were performed in triplicate. Fina l analysis of the data was carried out with GraphPad Prism v.5.0 (GraphPad Software Inc., La Jolla, CA, USA).
(§5) The advanced curve-fitting function in GraphPad Prism (nonlinear regression fit) was used for calculation of ΔTm values. Only results with fitting r2 values > 0.75 (std error < 0.25) were considered.
(§6) Table S2. Synthetic oligonucleotides used in FRET experiments.

KRAS21R G-quadruplex DNA = test: FRET melting assay, G-quadruplex DNA; type: binding
Experimental: as §4, §5, §6

[6] = system: luciferase reporter under methylated CMV promoter in KG-1 leukemia cells; test: CMV-luc assay in KG-1 cells; type: cell-based; conditions: KG-1 CMV-luc, vs DMSO
Experimental: The assay was carried out as described by Rilova et al.. The KG-1 cell line was stably transfected with the luciferase firefly (Luc^+ from pGL3 by Promega, Madison, WI, USA) reporter gene under the control of a methylated CMV promoter (from pEGFP-N1 by Clontech) and selected for the maintenance of the methylation of CMV and luciferase expression silencing (KG-1 CMV-luc). The stably integrated KG-1 CMV-luc cells are cultivated in RPMI-1640 medium (Lonza, Strasbourg, France), supplemented with 10% FCS (Lonza, Strasbourg, France) and 0.5 mg/mL of geneticin (Sigma-Aldrich, Saint-Quentin Fallavier, France), under 5% CO2, at 37 °C and seeded at 20,000 cells per well in 96-well plates. After 5 or 24 h of incubation in the presence of compounds or the solvent DMSO, the induction of the promoter is measured by quantification of luciferase with the Brite-lite assay system (PerkinElmer, Villebon-sur-Yvette, France) according to the manufacturer’s protocol. The luminescence is measured on an EnVision Multilabel Plate Reader (PerkinElmer, Villebon-sur-Yvette, France), and the data are expressed as fold induction compared to DMSO control. The mean of 2–4 experiments and its standard error are reported.

[7] = system: methylated UCHL1 promoter (pUCHL1) in HCT116 cells; test: UCHL1 promoter demethylation assay (EGFP induction, FACS); type: cell-based, human; conditions: HCT116, 5 µM, five days
Experimental: The assay was performed as described in [29]. Briefly, human colon cancer HCT116 (ATCC, VA, USA) cells were grown in Dulbecco’s Modified Eagle Medium (DMEM; Euroclone, Milan, Italy) supplemented with 10% fetal bovine serum (FBS; Euroclone, Milan, Italy), 2 mM L-glutamine (Euroclone), and antibiotics (100 U/mL penicillin, 100 µg/mL streptomycin) (Euroclone). The pUMLIEP vector (composed by MetLuc-IRES-EGFP construct upon the control of the ubiquitin carboxyl-terminal hydrolase L1 (UCHL1)) was linearized and methylated by with ClaI and SssI-methylase enzymes (New England Biolabs, Milan, Italy). After, methylated pUMLIEP was transfected into HCT116 cells following the protocol described in [30]. […] On day 5, cells were observed under by a fluorescent microscope (Cytation 5 Cell Imaging Multi-Mode Reader (BioTeK Milan, Italy) and BD Accuri flow cytometers. Nuclei were counterstained with DAPI (10 µg/mL, Invitrogen, Tournai, Belgium).

T1 sequence (Q9Y6K1 634-912 limits assumed): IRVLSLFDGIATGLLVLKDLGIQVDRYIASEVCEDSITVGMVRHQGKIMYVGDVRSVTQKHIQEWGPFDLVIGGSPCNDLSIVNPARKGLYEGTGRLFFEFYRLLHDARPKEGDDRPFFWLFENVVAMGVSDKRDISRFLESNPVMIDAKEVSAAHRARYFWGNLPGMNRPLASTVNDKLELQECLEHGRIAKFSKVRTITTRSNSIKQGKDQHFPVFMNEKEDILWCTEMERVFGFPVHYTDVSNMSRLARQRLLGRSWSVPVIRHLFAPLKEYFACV

Row | melting point [°C] | EC50 [1] [µM] | IC50 (HL60 APL cells) [µM] | IC50 (U937 AML cells) [µM] | SMILES | other results
1 | 183 to 185 |  |  |  | Cc1cc(Nc2cccc(CNC(=O)c3cccc(Nc4ccnc5ccccc45)c3)c2)nc(N)n1 (as salt: hydrochloride) [Compound 1c] | 
2 | 227 to 229 | 21 ± 4 | 9.9 ± 1.1 | 4.8 ± 0.6 | Cc1cc(Nc2cccc(C(=O)Nc3cccc(Nc4ccnc5ccccc45)c3)c2)nc(N)n1 [Compound 1e] | 
3 | 153 to 155 | 21 ± 3.1 | 18.1 ± 2.4 | 1.4 ± 0.2 | Cc1cc(Nc2cccc(NC(=O)c3cccc(CNc4ccnc5ccccc45)c3)c2)nc(N)n1 [Compound 1a] | 
4 | 98 to 100 | 12 ± 3 | 1.9 ± 0.1 | 4.4 ± 0.7 | Cc1cc(Nc2cccc(NCc3cccc(Nc4ccnc5ccccc45)c3)c2)nc(N)n1 [Compound 1f] | 
5 | 260 to 262 | 51 ± 10 | 67 ± 7.4 | 67 ± 8.8 | Cc1cc(NCc2cccc(NC(=O)c3cccc(Nc4ccnc5ccccc45)c3)c2)nc(N)n1 [Compound 1d] | 
6 |  |  |  |  | C[n+]1ccc(-c2c3nc(c(-c4cc[n+](C)cc4)c4ccc([nH]4)c(-c4cc[n+](C)cc4)c4ccc([nH]4)c(-c4cc[n+](C)cc4)c4nc2C=C4)C=C3)cc1 [Py4P, reference compound] | F21T ∆Tm (F21T G-quadruplex DNA; positive control at 1 µM): 21.2 ºC; KRAS ∆Tm (KRAS21R G-quadruplex DNA; positive control at 1 µM): 18.8 ºC
7 |  |  |  |  | Nc1ncn([C@H]2C[C@H](O)[C@@H](CO)O2)c(=O)n1 [DAC, 5-aza-2′-deoxycytidine, reference compound] | Luciferase Expression (Fold ± SD) ([6]; 0.5 µM): 18.13 ± 5.52 fold; Luciferase Expression (Fold ± SD) ([6]; 1 µM): 19.80 ± 3.88 fold; Luciferase Expression (Fold ± SD) ([6]; 5 µM): 23.82 ± 5.44 fold; Luciferase Expression (Fold ± SD) ([6]; 10 µM): 20.96 ± 4.02 fold; pUCHL1 demethylation, EGFP-positive cells (FACS R1) [7]: 46.6%
8 | 292 to 294 | 13 ± 0.9 | 125 ± 16.2 | 66 ± 9.2 | Cc1cc(Nc2ccc(C(=O)Nc3cccc(Nc4cc(C)nc(N)n4)c3)cc2)nc(N)n1 [Compound 3c] | 
9 | 105 to 107 | > 100 | 225 ± 28.5 | 123 ± 15 | Cc1cc(Nc2cccc(NC(=O)c3cccc(Nc4cc(C)nc(N)n4)c3)c2)nc(N)n1 [Compound 3b] | 
10 | 218 to 220 | 41 ± 10 | 83 ± 10.2 | 52.4 ± 7.6 | Cc1cc(Nc2ccc(NC(=O)c3cccc(Nc4cc(C)nc(N)n4)c3)cc2)nc(N)n1 [Compound 3a] | 
11 | 163 to 165 | 19 ± 2 | 40 ± 5 | 37 ± 5.9 | Cc1cc(Nc2cccc(NC(=O)Cc3cccc(Nc4ccnc5ccccc45)c3)c2)nc(N)n1 [Compound 1b] | 

Row | SMILES | melting point [°C] | EC50 [1] [µM] | IC50 (HL60 APL cells) [µM] | IC50 (U937 AML cells) [µM] | other results
12 | O=C(Nc1cccc(NC(=O)c2cccc(Nc3ccnc4ccccc34)c2)c1)OCc1ccccc1 [Compound 4b] |  | 13 ± 1.4 | 1.9 ± 0.3 | 3.2 ± 0.6 | effect on sub-G1 peaks vs untreated cells (U937 cells): remarkable increase; IC50 [2]: 40 ± 4.8 µM; IC50 [3]: 20.5 ± 2.8 µM; IC50 [4]: 13.1 ± 1.5 µM; IC50 [5]: 65 ± 7.3 µM; IC50 (M14 human melanoma): 15.3 ± 2 µM; F21T ∆Tm (F21T G-quadruplex DNA; 5 µM): 3.8 ºC; F21T ∆Tm (F21T G-quadruplex DNA; 10 µM): 1.5 ºC; KRAS ∆Tm (KRAS21R G-quadruplex DNA; 5 µM): 2.8 ºC; KRAS ∆Tm (KRAS21R G-quadruplex DNA; 10 µM): 2.5 ºC

Source: article PMC7073229, “Novel Quinoline Compounds Active in Cancer Cells through Coupled DNA Methyltransferase Inhibition and Degradation” (Cancers, 2020)
